Measured values taken from publication PMC7247425, “MRP1-Collateral Sensitizers as a Novel Therapeutic Approach in Resistant Cancer Therapy: An In Vitro and In Vivo Study in Lung Resistant Tumor” (International Journal of Molecular Sciences, 2020).

How the values were obtained:
[1] = Hemato-chemical parameters and tolerability in treated mice; format: in vivo; conditions: blood after euthanasia day 21; i.p. treatment day 1, 7, 14; means ± SD, n = 8
Method: (§1) Here, 1 × 10^6 A549/DX cells were mixed with 100 μl Matrigel implanted in 6-week-old female nu/nu BALB/C mice (Charles River Laboratories Italia, Calco, Italy), housed (5 per cage) under 12 h light/dark cycle, with food and drinking provided ad libitum. Tumor growth was measured daily by caliper, according to the equation (LxW2)/2, where L = tumor length and W = tumor width. When the tumor reached the volume of 50 mm^3, mice (n = 8/group) were randomized and treated as reported in the following groups, treated on day 1, 7, and 14 after randomization: (1) vehicle group (ctrl), treated intraperitoneally (i.p.) with 100 µL saline solution; (2) cis-Pt group, treated i.p. with 50 mg/kg cis-Pt, dissolved in 100 µL water/10% DMSO solution, according to Kopecka et al., 2015 [53]; (3) F397 group, treated i.p. with 750 nmoles of the compound, dissolved in 100 µL water/10% DMSO solution, corresponding to the maximum tolerated dose (not shown and Table 2); (4) F421 group, treated i.p. with 750 nmoles of the compound, dissolved in 100 µL water/10% DMSO solution i.p, corresponding to the maximum tolerated dose (not shown and Table 2); (5) cis-Pt/F397 group, treated i.p. with 50 mg/kg Cis-Pt and 750 nmoles of F397; (6) cis-Pt/F421 group, treated i.p. with 50 mg/kg cis-Pt and 750 nmoles of F421; (7) MK571 group, treated i.p. with 3 mg/kg MK571 dissolved in 100 µL water/10% DMSO solution, according to Jones et al., 1989 [56]; (8) MK571/F397 group, treated i.p. with 3 mg/kg MK571 and 750 nmoles of F397; (9) MK571/F421 group, treated i.p. with 3 mg/kg MK571 and 750 nmoles of F421. Tumor volumes were monitored daily. Animals were euthanized at day 21 after randomization with zolazepam (0.2 mL/kg) and xylazine (16 mg/kg). Lactate dehydrogenase (LDH), aspartate aminotransferase (AST), alanine aminotransferase (ALT), alkaline phosphatase (AP), creatinine, and creatine phosphokinase (CPK) were measured on blood samples collected immediately after euthanasia, using commercially available kits from Beckman Coulter Inc. (Beckman Coulter, Miami, FL, USA).

[2] = test system: A549/DX cells; experiment: In vivo tumor growth of A549/DX xenografts; design: species or system nu/nu BALB/C mice; conditions: A549/DX xenografts, 50 mg/kg cis-Pt i.p.
Method: In order to translate in vivo the capability of F397, F400, and F421 to act as “sensitizers”, A549/DX cells were implanted in immune-deficient BALB/C mice, and once the tumor reached the volume of 50 mm^3, the mice were randomized and treated […] with the vehicle (saline solution) and/or cis-Pt.
as §1

[3] = test system: A549/DX cells; experiment: Cell viability (MTT) of A549/DX cells at 72 h, alone and in co-administration; format: cell-based, human
Method: Indeed, the accurate detection of cell viability in A549 cells was critical in calculating the SR in a reliable manner.
First, we wondered if there was a correlation between the inhibition of the MRP1 protein and the CS properties of the compounds.
(§2) The determination of cell growth was performed using an MTT assay at 24 or 72 h. On day 1, 10,000 cells/well were seeded into 96-well plates in a volume of 100 μL. […] In all the experiments, the various drug solvents (ethanol, DMSO) were added in each control to evaluate a possible solvent cytotoxicity. After the established incubation time with drugs, 10 μL MTT (0.5 mg/mL) was added to each well, and after 3 h incubation at 37°C, the supernatant was removed. The formazan crystals were solubilized using 100 μL of DMSO and the absorbance values at 570 and 630 nm were determined on the microplate reader Victor 3 from PerkinElmer Life Sciences. The absorbance of the untreated cells was considered equal to 100% cell viability; the viability of cells measured in each experimental condition was expressed as a percentage of viable cells in the considered condition vs. the viability of the untreated cells.

[4] = test system: MDCK-MRP1 cells; experiment: Antiproliferative MTT assay in MDCK-wt and MDCK-MRP1 cells, selectivity ratio; format: cell-based, canine; conditions: EC50 of MDCK cells/EC50 of MDCK-MRP1 cells
Method: Within the search for novel CS agents acting on MRP1 proteins, the compounds selected among the different series of sigma-2 ligands were investigated for their activity at MRP1, paralleled with their cytotoxicity in the parental Madin–Darby canine kidney (MDCK-wt) cells and in the MDR-derived cells (MDCK-MRP1) for the determination of their SR (EC50 parental cells/EC50 MDR cells). The activity at the MRP1 pump was determined measuring the transport inhibition of the pro-fluorescent probe Calcein-AM, an MRP1 substrate, in the MRP1-overexpressing cell line (MDCK-MRP1) by the in vitro biological assay usually performed to study an MRP1 interaction. […] The SR was measured as the EC50 of the MDCK cells/EC50 of the MDCK-MRP1 cells.
as §2

[5] = target: MRP1 (Homo sapiens, UniProt P33527); experiment: Calcein-AM transport inhibition in MDCK-MRP1 cells (MRP1 activity)
Sequence of MRP1 (P33527 whole entry): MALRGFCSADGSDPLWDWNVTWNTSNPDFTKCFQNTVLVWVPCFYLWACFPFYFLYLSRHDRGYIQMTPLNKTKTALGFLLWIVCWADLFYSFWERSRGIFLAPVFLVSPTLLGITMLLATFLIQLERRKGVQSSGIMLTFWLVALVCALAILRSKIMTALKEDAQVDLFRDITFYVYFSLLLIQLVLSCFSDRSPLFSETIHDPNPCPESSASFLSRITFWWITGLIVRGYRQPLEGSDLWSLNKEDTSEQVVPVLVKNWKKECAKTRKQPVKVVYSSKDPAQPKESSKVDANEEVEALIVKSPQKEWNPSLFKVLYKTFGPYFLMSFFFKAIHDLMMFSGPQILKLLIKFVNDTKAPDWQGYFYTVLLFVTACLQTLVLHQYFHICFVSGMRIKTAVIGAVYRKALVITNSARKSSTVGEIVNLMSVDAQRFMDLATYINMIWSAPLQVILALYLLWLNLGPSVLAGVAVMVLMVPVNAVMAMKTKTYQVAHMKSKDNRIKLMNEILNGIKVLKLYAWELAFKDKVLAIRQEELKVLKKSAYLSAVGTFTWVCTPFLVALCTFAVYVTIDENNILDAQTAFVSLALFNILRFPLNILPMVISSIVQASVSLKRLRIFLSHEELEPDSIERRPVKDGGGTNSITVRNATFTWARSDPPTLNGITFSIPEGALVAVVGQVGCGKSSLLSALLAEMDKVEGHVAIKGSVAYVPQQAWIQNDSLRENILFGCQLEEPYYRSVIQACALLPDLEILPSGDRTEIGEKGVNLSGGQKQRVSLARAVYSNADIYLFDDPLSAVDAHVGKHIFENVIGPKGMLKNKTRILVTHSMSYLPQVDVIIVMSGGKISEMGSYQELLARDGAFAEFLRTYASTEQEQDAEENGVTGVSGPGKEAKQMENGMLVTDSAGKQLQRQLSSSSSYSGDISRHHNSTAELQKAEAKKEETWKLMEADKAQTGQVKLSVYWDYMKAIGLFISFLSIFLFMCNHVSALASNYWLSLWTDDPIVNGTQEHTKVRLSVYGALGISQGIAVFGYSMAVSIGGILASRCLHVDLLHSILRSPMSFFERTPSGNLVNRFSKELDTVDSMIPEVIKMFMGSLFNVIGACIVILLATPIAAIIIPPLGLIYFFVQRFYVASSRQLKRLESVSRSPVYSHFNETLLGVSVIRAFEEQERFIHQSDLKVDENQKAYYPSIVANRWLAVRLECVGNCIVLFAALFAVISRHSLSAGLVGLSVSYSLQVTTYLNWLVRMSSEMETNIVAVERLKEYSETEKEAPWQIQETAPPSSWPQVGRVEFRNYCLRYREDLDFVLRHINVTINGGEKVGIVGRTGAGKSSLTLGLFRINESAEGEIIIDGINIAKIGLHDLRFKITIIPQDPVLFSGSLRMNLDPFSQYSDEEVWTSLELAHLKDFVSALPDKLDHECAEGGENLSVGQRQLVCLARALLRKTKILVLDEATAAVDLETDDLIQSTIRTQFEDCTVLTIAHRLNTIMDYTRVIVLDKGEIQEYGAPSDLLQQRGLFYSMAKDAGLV
Method: Each cell line (30,000 cells per well) was seeded into a black CulturePlate 96/well plate with a 100 μL medium and allowed to become confluent overnight. […] In these experimental conditions, the Calcein cell accumulation in the absence and in the presence of the tested compounds was evaluated and the fluorescence basal level was estimated with the untreated cells. In treated wells, the increase in fluorescence with respect to the basal level was measured. EC50 values were determined by fitting the fluorescence increase percentage vs. log(dose).

Row | SMILES | ALT [1] [U/L] | AP [1] [U/L] | AST [1] [U/L] | CPK [1] [U/L] | LDH [1] [U/L] | Tumor growth, cis-Pt alone [2] | Sensitivity to cis-Pt co-administrated with MK571 ([3]; cis-Pt 25 μM + MK571 25 μM) | Cytotoxicity / antiproliferative effect alone ([3]; 25 μM alone) | SR (selectivity ratio) [4] | EC50 [5] [µM]
1 | N.N.[Cl][Pt][Cl] [Cis-Pt, cis-platinum, reference compound] | 41 ± 9 | 129 ± 14 | 91 ± 34 | 259 ± 98 | 7092 ± 542 | resistance of A549/DX against the standard chemotherapy regimen | restored when co-administrated with MK571 | – | – | –
2 | CN(C)C(=O)CCSC(SCCC(=O)O)c1cccc(/C=C/c2ccc3ccc(Cl)cc3n2)c1 (stereo not drawn) [MK571, reference compound] | 41 ± 7 | 117 ± 33 | 101 ± 33 | 334 ± 81 | 7141 ± 927 | – | – | not cytotoxic | – | –
3 | Fc1ccc(-n2cc(CCCCN3CCC4(CC3)OCc3ccccc34)c3ccccc32)cc1 [Siramesine, siramesine, reference compound] | – | – | – | – | – | – | – | – | 0.56 | 23.2 ± 4.5
